In patent US20050101612A1, “Use of indole-3-acetic acids in the treatment of asthma, copd and other diseases” (priority 2002, published 2005):

Key:
[1] = biological target: T1, CRTh2 receptor (Homo sapiens, UniProt Q9Y5Y4); assay: Intracellular calcium mobilisation (FLIPR, inhibition of PGD2 response) in HEK-hrCRTh2-Gα16 cells; type: cell-based; settings: antagonism of 2×p[A]50 PGD2, Cheng-Prusoff analysis, read-out: pA2 (converted)
T1 construct: expressed in transfected cells
T1 sequence (Q9Y5Y4 1-395): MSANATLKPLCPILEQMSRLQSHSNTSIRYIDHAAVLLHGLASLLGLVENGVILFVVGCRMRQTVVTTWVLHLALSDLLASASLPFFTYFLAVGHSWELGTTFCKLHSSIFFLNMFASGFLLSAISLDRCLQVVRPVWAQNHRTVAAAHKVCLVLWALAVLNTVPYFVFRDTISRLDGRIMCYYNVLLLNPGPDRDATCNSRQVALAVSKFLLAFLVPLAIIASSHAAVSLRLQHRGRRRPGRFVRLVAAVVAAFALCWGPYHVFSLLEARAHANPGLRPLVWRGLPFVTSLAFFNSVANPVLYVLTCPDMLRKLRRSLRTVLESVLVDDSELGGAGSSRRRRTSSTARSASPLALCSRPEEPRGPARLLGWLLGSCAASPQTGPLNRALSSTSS
Experimental: Intracellular Calcium Mobilisation
Human Embryonic Kidney Cells co-transfected with both the CRTh2 receptor and Gα16 G-protein (HEK-hrCRTh2-Gα16) are routinely cultured as monolayers in Dulbecco's Modified Eagles Medium (DMEM; Sigma) supplemented with 10% (v:v) heat inactivated foetal bovine serum (New Zealand sourced; Hyclone), 1% (v:v) non-essential amino acids (Gibco BRL), 1% (v:v) penicillin/streptomycin (Gibco BRL), 2 mM L-glutamine (Gibco BRL) and grown under 1 mg/ml (v:v) Geneticin (Gibco BRL) antibiotic selection. Approximately 24 hours prior to the assay the cells are plated at a seeding density of 100,000 cells/well in 100 μl growth media into black walled 96 well Poly-D-Lysine coated plates (Becton Dickinson), with clear bottoms to allow cell inspection and fluorescence measurements from the bottom of each well. All cultures are maintained under standard tissue culture conditions (37° C. in a humidified atmosphere of 5% CO2).
To enable changes in intracellular calcium levels to be measured in HEK-hrCRTh2-Gα16 cells fluo-3AM is utilised as the fluorescent calcium indicator. A dye loading buffer is prepared which consists of a final concentration of 5 μM Fluo-3AM fluorescent cytoplasmic calcium indicator dye (Tef Labs), 2.2 μl/ml Pluronic F127 (Molecular Probes) to promote dye uptake, and 0.5 mM brilliant black (Sigma) to reduce background fluorescence in Balanced Salt Solution (BSS; 125 mM NaCl, 5.4mM KCl, 16.2 mM NaHCO3, 0.8 mM MgCl2, 1 mM CaCl2, 20 mM HEPES, 1 mM NaH2PO4, 5.5 mM D-(+)-Glucose, 0.1% BSA and pH 7.4 with NaOH). […]
Test compounds are made up at a stock concentration of 10 mM in DMSO. The compounds to be evaluated are then prepared, by serial dilution in BSS buffer, to the required concentrations for inhibition dose response curves to be constructed. […] This allows the potency agonist ([A]50) value to be determined for the HEK-hrCRTh2-Gα16 cells on any given day. Once the p[A]50 for PGD2 has been determined a separate assay plate containing 2×p[A]50 of PGD2 is prepared as the 2nd addition plate (or agonist plate). […]

`COc1ccc2c(c1)c(CC(=O)O)c(C)n2-c1cc(C)nc(-c2ccccc2)n1` [Example 1, [5-methoxy-2-methyl-1-(6-methyl-2-phenylpyrimidin4-yl)-1H-indol-3-yl]acetic acid] gave a Kb [1] of 316 nM and a melting point of 160 to 162 °C.

`COc1ccc2c(c1)c(CC(=O)O)c(C)n2-c1nc2ccccc2s1` [Example 2, [1-(1,3-benzothiazol-2-yl)-5-methoxy-2-methyl-1H-indol-3-yl]acetic acid] showed a Kb [1] of 316 nM and a melting point of 158 to 160 °C.

`COc1ccc2c(c1)c(CC(=O)O)c(C)n2-c1cc(Oc2ccccc2)nc(Oc2ccccc2)n1` [Example 3, [1-(2,6-diphenoxypyrimidin-4-yl)-5-methoxy-2-methyl-1H-indol-3-yl]acetic acid] gave a melting point of 168 to 170 °C.

For `Cc1ccc2c(c1)c(CC(=O)O)c(C)n2-c1cc(Oc2ccccc2)nc(Oc2ccccc2)n1` [[1-(2,6-diphenoxypyrimidin-4-yl)-2,5-dimethyl-1H-indol-3-yl]acetic acid], the Kb [1] was 158 nM.
